How the values were obtained:
[1] = test system: rice d10 variant; assay: Tiller (rice branching) inhibitory activity in hydroponic culture; assay type: in vivo; settings: for activity of inhibiting the morphology of the tiller / length of the secondary tiller: rice d10 variant; for length of the secondary tiller: compared with untreated d10 variant (Figure 4)
Method: In this Example, a rice d10 variant (Arite et al., Plant J, 51 (6) 1019-1029 (2007)) was used, and the strigolactone-like compound of the present invention was examined for its effects on this variant. […] In this d10 variant, the functions of a strigolactone biosynthetic enzyme are inhibited by the variation of the strigolactone biosynthetic gene so that the amount of endogenous strigolactone is decreased.
First, rice seeds were sterilized for 30 minutes with 2.5% sodium hypochlorite containing 0.01% Tween-20 and then washed with sterilized water. Then, the seeds were germinated by culture for 2 days in sterilized water of 25°C under dark conditions. The germinated seeds were transferred to a hydroponic culture medium containing 0.6% agar and grown for 6 days under conditions of a 16-hour light period and an 8-hour dark period under a fluorescent light. […] The number of tillers and the length of each tiller were determined. In this context, the test compounds used were the strigolactone-like compounds BPMF, TFTF, CPMF, NPMF, FPMF, and IPMF shown in Figure 1A, NaMF described in Synthesis Example 3, and GR24 as a control at a concentration of 1 µM, 100 nM, or 10 nM.
In the same way as in Example 1(1), the strigolactone-like compound was examined for its effects on rice tillers.
In this context, the test compounds used were p-CPMF, m-CPMF, o-CPMF, o-FPMF (1-14), o-BPMF (1-15), p-BPMF, 1-NaphMF (1-16), 2-NaphMF (NaMF), CNMF (1-17), CQMF (1-19), and TeMF (1-18) and GR24 as a control at a concentration of 1 µM or 100 nM. Also, PMF and p-CBMF were used at a concentration of 1 µM.
In this context, the test compounds used were 2-1 (2,3-DCMF), 2-2 (2,4-DCMF), 2-3 (2,5-DCMF), and 2-4 (2,6-DCMF) at a concentration of 1 µM, 100 nM, or 10 nM and GR24 as a control at a concentration of 1 µM or 100 nM.
In this context, the test compounds used were p-BPMF, 2,4-DCMF (2-2), o-BBMF (3-1), o-BPMF (1-15), o-CBMF (3-2), o-CPMF, and o-FPMF (1-14) at a concentration of 100 nM or 10 nM, 2-16, 2-6, 2-17, 2-18, and 2-19 at a concentration of 0.1 µM or 1 µM, and GR24 as a control at a concentration of 1 µM or 100 nM.

[2] = in water at 20°C; cited from earlier work
[3] = test system: Arabidopsis thaliana max3 variant; assay: Branching inhibitory activity in hydroponic culture; assay type: in vivo; settings: for activity of inhibiting the morphology of the tiller of the max3 variant: 5 µM in hydroponic culture solution, 15 days (Figure 6)
Excerpt: In this Example, the strigolactone-like compound BPMF of the present invention was examined for its effects on an Arabidopsis thaliana max3 variant. The Arabidopsis thaliana max3 variant is a strigolactone-deficient variant, as in the rice d10 variant, and is known to have a larger number of branches (Booker J. et al., Current Biology, 14: 1232-1238 (2004)).
Briefly speaking, the surfaces of the respective seeds of wild-type Arabidopsis thaliana and the max3 variant were separately sterilized for 5 minutes with a 1% aqueous sodium hypochlorite solution. The thus-treated seeds of each strain were washed five times with sterilized water and allowed to absorb water at 4°C for 1 day under dark conditions. Then, the seeds were inoculated to a 1/2 MS medium containing 1% sucrose and 0.8% agar and cultured at 22°C for 15 days under conditions of a 16-hour day length under a fluorescent light (60 to 70 µmol m^-2 s^-1). […] Nine healthy seedlings were selected from each pot and further hydroponically cultured for 15 days (a total of 30 days) so as to prevent the above-ground part from being wetted by the hydroponic culture solution. The test compounds used were BPMF and GR24 (control). The test compound-containing hydroponic culture solution was replaced every three days.

[4] = test system: endogenous strigolactone; assay: Measurement of amount of endogenous strigolactone (LC/MS-MS); assay type: in vivo, rice (Shiokari); settings: 24 hours, 0.1 µM, 1 µM or 10 µM
Method: In this Example, the amount of strigolactone exudates from a plant treated with the strigolactone-like compound was measured.
A sterilized solution I (2.5% sodium hypochlorite and 0.01% Tween-20) was added to rice seeds (Shiokari) and shaken at room temperature for 15 minutes. The sterilized solution I was discarded, and a sterilized solution II (2.5% sodium hypochlorite) was added thereto and shaken at room temperature for 15 minutes. In a clean bench, the sterilized solution II was discarded, and the seeds were washed five times with sterilized water and left standing at 25°C for 2 days in a dark place. Two days later, the germinated seeds were transplanted in an agar medium for hydroponic rice culture and left standing at 25°C for 6 days under conditions of a 16-hour light period and an 8-hour dark period. […]
To each hydroponic rice culture solution, 200 pg of d1-2'-epi-5-deoxystrigol per 10 mL of the hydroponic rice culture solution was added, followed by extraction with ethyl acetate (3 mL) twice. […] The sample was dried, dissolved in 50% acetonitrile, and analyzed by LC/MS-MS.
To the rice root dipped in acetone, 200 pg of d1-2'-epi-5-deoxystrigol was added, and the root was then disrupted. […] The sample was dried, dissolved in 50% acetonitrile, and analyzed by LC/MS-MS.

[5] = Stability test in water (residual compound by HPLC); assay type: physicochemical; settings: 30 days in water at 20°C, read-out: stably present after being left in water
Method: The strigolactone-like compound BPMF was left for 30 days in water at 20°C, and change in its activity was then determined. Briefly speaking, rice was hydroponically cultured in the same way as in the hydroponic rice culture solution test conducted in Example 3, and the amount of a residual compound in the resulting solution was calculated using HPLC. First, the hydroponic culture solution adjusted to a predetermined concentration was collected at regular intervals and filtered through a filter. Then, a predetermined amount (e.g., 10 µl) was analyzed by HPLC. The content was determined on the basis of an area value, and the degree of decomposition was calculated by comparison with a standard.

[6] = test system: parasitic weed; assay: Parasitic weed germination-inducing activity (result not shown); assay type: in vivo; settings: compared with p-BPMF
Method: In this Example, the seeds of a parasitic weed Orobanche minor or Striga hermonthica were used, and the strigolactone-like compound of the present invention was examined for its parasitic weed germination-promoting activity.
The Striga hermonthica seeds were dipped in a 0.5% sodium hypochlorite solution containing 0.03% Tween and sterilized by treatment for 3 minutes using an ultrasonic generator. The seeds were washed three times with sterilized water and surface-dried at 27°C. Then, approximately 50 seeds were left, for preculture, at room temperature for 10 to 12 days under dark conditions on an 8-mm glass fiber filter paper moistened with 50 µl of sterilized water. A solution of each test compound concentration-adjusted by dissolution in sterilized water was used in bioassay. A filter paper was placed on a 5-cm Petri dish, and 1 ml of the test compound solution or sterilized water for comparison was added thereto. The glass fiber filter paper with the precultured parasitic weed seeds placed thereon was put on the resulting Petri dish and cultured at 30°C for 24 hours, followed by calculation of the germination rate. The test compounds used were the strigolactone-like compound BPMF shown in Figure 1A and GR24 as control at a concentration of 50 µM. […]

[7] = concentration of 100 nM, Example 8 (Figure 14)
[8] = concentration of 100 nM, Example 10 (Figures 16-1, 16-2)

## CC1=CC(Oc2cccc(Cl)c2Cl)OC1=O (stereo not shown) [2-1]
[1]; [7]
  activity of inhibiting the morphology of the tiller: high activity

## CC1=CC(Oc2ccc(Cl)cc2Cl)OC1=O (stereo not shown) [2-2]
[1]; [7]
  activity of inhibiting the morphology of the tiller: high activity
[1]; [8]
  activity of inhibiting the morphology of the tiller: high activity

## CC1=CC(Oc2cc(Cl)ccc2Cl)OC1=O (stereo not shown) [2-3]
[1]; [7]
  activity of inhibiting the morphology of the tiller: high activity

## CC1=CC(Oc2ccc(Br)cc2Br)OC1=O (stereo not shown) [2-6]
[1]; [8]
  activity of inhibiting the morphology of the tiller: high activity

## CC1=CC(Oc2ccc(F)cc2F)OC1=O (stereo not shown) [2-16]
[1]; [8]
  activity of inhibiting the morphology of the tiller: high activity

## CC1=CC(Oc2ccc(I)cc2I)OC1=O (stereo not shown) [2-17]
[1]; [8]
  activity of inhibiting the morphology of the tiller: high activity

## CC1=CC(Oc2ccc(C(F)(F)F)cc2C(F)(F)F)OC1=O (stereo not shown) [2-18]
[1]; [8]
  activity of inhibiting the morphology of the tiller: high activity

## CC1=CC(Oc2ccc(C#N)cc2C#N)OC1=O (stereo not shown) [2-19]
[1]; [8]
  activity of inhibiting the morphology of the tiller: high activity

## CC1=CC(OC=C2C(=O)OC3C4=C(CCCC4(C)C)CC23)OC1=O (stereo not shown) [5-DS]
[2]
  half-life: approximately 1.5 days

## CC1=CC(Oc2ccc(Br)cc2)OC1=O (stereo not shown) [BPMF, 5-(4-bromophenoxy)-3-methylfuran-2(5H)-one]
[1]; after 12-day growth, 10 µM (Figure 3)
  morphology of the d10 variant: restored its morphology similar to that of the wild-type strain
[1]; compared with GR24 (Figure 4)
  concentration-dependent activity against the rice d10 variant: strong activity, which was larger than that of the typical non-natural strigolactone GR24
[1]; d10 variant, 27, 37 and 47 days after treatment with 1 nM or 10 nM (Figure 5)
  time-dependent change in the number of tillers: more effective and have more persistent activity than GR24
[1]
  length of the secondary tiller: obviously inhibited
[1]; concentration of 10 nM (Figure 2)
  activity of inhibiting the morphology of the tiller: strongest activity
[1]; concentration of 100 nM, Example 6 (Figures 12-1 to 12-3)
  activity of inhibiting the morphology of the tiller: strongest activity
[1]; [8]
  activity of inhibiting the morphology of the tiller: high activity
[3]
  activity of inhibiting the morphology of the tiller of the max3 variant: exhibited the activity of inhibiting the morphology of the tiller of the max3 variant
[3]; after 30-day growth, 1 µM (Figure 7)
  morphology of the max3 variant: restored its morphology similar to that of the wild-type strain
[4]; compared with GR24 (Figure 10)
  amount of endogenous strigolactone exudates from the rice root to the hydroponic culture solution: decreased the amount of natural strigolactone synthesized, and this effect was higher than that of GR24
[4]; in the hydroponic rice culture solution and the rice root
  amount of plant natural strigolactone synthesized: decreased
[5]
  remaining at 720 h: ≥ 95%

## CC1=CC(OC=C2C(=O)OC3c4ccccc4CC23)OC1=O (stereo not shown) [GR24, reference compound]
[3]
  activity of inhibiting the morphology of the tiller of the max3 variant: exhibited the activity of inhibiting the morphology of the tiller of the max3 variant
[2]
  half-life: approximately 10 days

## CC1=CC(Oc2ccc3ccccc3c2)OC1=O (stereo not shown) [NaMF]
[1]; 6 days in hydroponic solution with compound at 1 µM, 100 nM or 10 nM (Figure 2)
  activity of inhibiting the morphology of the tiller: slightly weaker than that of the other compounds

## CC1=CC(Oc2ccc(C(F)(F)F)cc2)OC1=O (stereo not shown) [TFTF]
[1]
  length of the secondary tiller: obviously inhibited

## CC1=CC(Oc2ccccc2Br)OC1=O (stereo not shown) [o-BPMF]
[1]; result not shown
  tiller inhibitory activity: weak tiller inhibitory activity
[1]; [8]
  activity of inhibiting the morphology of the tiller: high activity
[6]
  parasitic weed germination-inducing activity: stronger parasitic weed germination-inducing activity than that of p-BPMF

## CC1=CC(Oc2ccccc2Cl)OC1=O (stereo not shown) [o-CPMF]
[1]; [8]
  activity of inhibiting the morphology of the tiller: high activity

## CC1=CC(Oc2ccccc2F)OC1=O (stereo not shown) [o-FPMF]
[1]; [8]
  activity of inhibiting the morphology of the tiller: high activity
